Laboratory results as given in PubChem BioAssay AID1845196 (Molecular Pharmacology Branch, DTP, NCI, 2023).

Tested on: 292921-168-R tumor spheroid viability
Assay: Anticancer human tumor 292921-168-R patient-derived pancreatic carcinoma cell line growth inhibition
Settings: spheroids with HUVEC and MSC; for IC50: curve of first compound; for viability, T/C: stronger effect = lower value
In short: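 Complex tumor spheroids combined malignant cells with endothelial cells and mesenchymal stem cells. DNA-damaging drugs and DNA repair inhibitors were tested alone and in combination, at half-log dilutions down from clinical Cmax (top 10 microM if Cmax unknown), 0.25% DMSO final.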

[1] = second compound 30 pM, first compound 0.00949 µM
[2] = second compound 30 pM, first compound 0.03 µM
[3] = second compound 30 pM, first compound 0.0949 µM
[4] = second compound 30 pM, first compound 0.3 µM
[5] = second compound 30 pM, first compound 0.949 µM
[6] = second compound 30 pM, first compound 3 µM
[7] = second compound 94.9 pM, first compound 0.00949 µM
[8] = second compound 94.9 pM, first compound 0.03 µM
[9] = second compound 94.9 pM, first compound 0.0949 µM
[10] = second compound 94.9 pM, first compound 0.3 µM
[11] = second compound 94.9 pM, first compound 0.949 µM
[12] = second compound 94.9 pM, first compound 3 µM
[13] = second compound 0.0003 µM, first compound 0.00949 µM
[14] = second compound 0.0003 µM, first compound 0.03 µM
[15] = second compound 0.0003 µM, first compound 0.0949 µM
[16] = second compound 0.0003 µM, first compound 0.3 µM
[17] = second compound 0.0003 µM, first compound 0.949 µM
[18] = second compound 0.0003 µM, first compound 3 µM
[19] = second compound 0.000949 µM, first compound 0.00949 µM
[20] = second compound 0.000949 µM, first compound 0.03 µM
[21] = second compound 0.000949 µM, first compound 0.0949 µM
[22] = second compound 0.000949 µM, first compound 0.3 µM
[23] = second compound 0.000949 µM, first compound 0.949 µM
[24] = second compound 0.000949 µM, first compound 3 µM
[25] = second compound 0.003 µM, first compound 0.00949 µM
[26] = second compound 0.003 µM, first compound 0.03 µM
[27] = second compound 0.003 µM, first compound 0.0949 µM
[28] = second compound 0.003 µM, first compound 0.3 µM
[29] = second compound 0.003 µM, first compound 0.949 µM
[30] = second compound 0.003 µM, first compound 3 µM
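Further: spheroids exposed to compounds for 7 days.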

| Structure (SMILES) | IC50 (second compound 30 pM) [µM] | IC50 (second compound 94.9 pM) [µM] | IC50 (second compound 0.0003 µM) [µM] | IC50 (second compound 0.000949 µM) [µM] | IC50 (second compound 0.003 µM) [µM] | viability, T/C [3] [%] | viability, T/C [4] [%] | viability, T/C [5] [%] | viability, T/C [6] [%] | viability, T/C [9] [%] | viability, T/C [10] [%] | viability, T/C [11] [%] | viability, T/C [12] [%] | viability, T/C [15] [%] | viability, T/C [16] [%] | viability, T/C [17] [%] | viability, T/C [18] [%] | viability, T/C [21] [%] | viability, T/C [22] [%] | viability, T/C [23] [%] | also measured |
| --- | --- | --- | --- | --- | --- | --- | --- | --- | --- | --- | --- | --- | --- | --- | --- | --- | --- | --- | --- | --- | --- |
| CNCc1ccc(-c2cc(-c3nc(-c4ccc(S(=O)(=O)C(C)C)cc4)cnc3N)on2)cc1 + COc1cc2c(cc1O)CCNC21CSC2c3c(OC(C)=O)c(C)c4c(c3C(COC1=O)N1C(O)C3Cc5cc(C)c(OC)c(O)c5C(C21)N3C)OCO4 | 0.193 | 0.147 | < 0.00949 | < 0.00949 | < 0.00949 | 71.5 | 36.8 | 15.8 | 13.2 | 69 | 19 | 13.2 | 8.91 | 28.6 | 14.5 | 10 | 8.68 | 4.26 | 4.15 | 3.65 | viability, T/C [1]: 96.9%; viability, T/C [2]: 104%; viability, T/C [7]: 100%; viability, T/C [8]: 96.4%; viability, T/C [13]: 45.9%; viability, T/C [14]: 50.7%; viability, T/C [19]: 2.7%; viability, T/C [20]: 5.05%; viability, T/C [24]: 0.18%; viability, T/C [25]: 0.18%; viability, T/C [26]: 0.17%; viability, T/C [27]: 0.15%; viability, T/C [28]: 0.2%; viability, T/C [29]: 0.24%; viability, T/C [30]: 0.16% |
| Cc1sc2c(c1C)C(c1ccc(Cl)cc1)=NC(CC(=O)Nc1ccc(O)cc1)c1nnc(C)n1-2 (stereo not given) + COc1cc2c(cc1O)CCNC21CSC2c3c(OC(C)=O)c(C)c4c(c3C(COC1=O)N1C(O)C3Cc5cc(C)c(OC)c(O)c5C(C21)N3C)OCO4 | 1.69 | 1.72 | 0.306 | < 0.00949 | < 0.00949 | 118 | 136 | 63.5 | 36.5 | 118 | 110 | 79.2 | 22.5 | 63.2 | 50.7 | 4.2 | 0.5 | 0.91 | 0.26 | 0.07 | viability, T/C [1]: 110%; viability, T/C [2]: 120%; viability, T/C [7]: 106%; viability, T/C [8]: 110%; viability, T/C [13]: 53.8%; viability, T/C [14]: 52.6%; viability, T/C [19]: 1.64%; viability, T/C [20]: 1.61%; viability, T/C [24]: 0.13%; viability, T/C [25]: 0.18%; viability, T/C [26]: 0.16%; viability, T/C [27]: 0.16%; viability, T/C [28]: 0.15%; viability, T/C [29]: 0.25%; viability, T/C [30]: 0.58% |
| Cn1ncnc1[C@H]1c2n[nH]c(=O)c3cc(F)cc(c23)N[C@@H]1c1ccc(F)cc1 + COc1cc2c(cc1O)CCNC21CSC2c3c(OC(C)=O)c(C)c4c(c3C(COC1=O)N1C(O)C3Cc5cc(C)c(OC)c(O)c5C(C21)N3C)OCO4 | 0.646 | 0.233 | < 0.00949 | < 0.00949 | < 0.00949 | 76.5 | 70.5 | 41.4 | 11.9 | 65.1 | 47.5 | 26.4 | 9.68 | 24.2 | 17.1 | 14.6 | 7 | 3.68 | 2.89 | 1.55 | viability, T/C [1]: 103%; viability, T/C [2]: 86.9%; viability, T/C [7]: 85.1%; viability, T/C [8]: 69.8%; viability, T/C [13]: 26.6%; viability, T/C [14]: 29.4%; viability, T/C [19]: 4.23%; viability, T/C [20]: 4.2%; viability, T/C [24]: 0.27%; viability, T/C [25]: 0.19%; viability, T/C [26]: 0.19%; viability, T/C [27]: 0.17%; viability, T/C [28]: 0.22%; viability, T/C [29]: 0.18%; viability, T/C [30]: 0.42% |
| O=C(c1cc(Cc2n[nH]c(=O)c3ccccc23)ccc1F)N1CCN(C(=O)C2CC2)CC1 + COc1cc2c(cc1O)CCNC21CSC2c3c(OC(C)=O)c(C)c4c(c3C(COC1=O)N1C(O)C3Cc5cc(C)c(OC)c(O)c5C(C21)N3C)OCO4 | 8.26 | 7.07 | < 0.0949 | < 0.0949 | < 0.0949 | 99.4 | 103 | 96.6 | 91.9 | 94.8 | 94 | 88 | 82.2 | 48 | 41.3 | 38.6 | 34.3 | 3.75 | 4.31 | 3.14 | viability, T/C (second compound 30 pM, first compound 9.49 µM): 44.2%; viability, T/C (second compound 30 pM, first compound 30 µM): 21.8%; viability, T/C (second compound 94.9 pM, first compound 9.49 µM): 38.9%; viability, T/C (second compound 94.9 pM, first compound 30 µM): 22.4%; viability, T/C (second compound 0.0003 µM, first compound 9.49 µM): 10.7%; viability, T/C (second compound 0.0003 µM, first compound 30 µM): 13.2%; viability, T/C [24]: 3.26%; viability, T/C (second compound 0.000949 µM, first compound 9.49 µM): 1.19%; viability, T/C (second compound 0.000949 µM, first compound 30 µM): 0.39%; viability, T/C [27]: 0.15%; viability, T/C [28]: 0.13%; viability, T/C [29]: 0.13%; viability, T/C [30]: 0.23%; viability, T/C (second compound 0.003 µM, first compound 9.49 µM): 0.41%; viability, T/C (second compound 0.003 µM, first compound 30 µM): 1.31% |
